Data reported in ChEMBL document CHEMBL3399961, “Sulfamic acid promoted one-pot three-component synthesis and cytotoxic evaluation of spirooxindoles” (Bioorg Med Chem Lett, 2015).

Columns and labels:
Format in all cases: functional, cell-based
DU-145 = assay: Cytotoxicity against human DU145 cells after 48 hrs by MTT assay; conditions: DU-145, 48 h
MDA-MB-231 = assay: Cytotoxicity against human MDA-MB-231 cells after 48 hrs by MTT assay; conditions: MDA-MB-231, 48 h
A549 = assay: Cytotoxicity against human A549 cells after 48 hrs by MTT assay; conditions: A549, 48 h

Question: With `O=C1OCC2=C1C1(C(=O)Nc3c(F)cccc31)c1c(-c3ccccc3)n[nH]c1N2` (stereo not given) as the compound, how does the IC50 (DU-145) read?
Answer: 37.3 µM

Question: What about the IC50 (MDA-MB-231) of the same compound?
Answer: 52.3 µM

Question: And the IC50 (A549)?
Answer: 37 µM

Question: What does the source list for `COc1ccc2c(c1)C1(C(=O)N2)c2c(-c3ccccc3)n[nH]c2Nc2[nH]c(=O)[nH]c(=O)c21` (stereo not given)?
Answer: IC50 (DU-145): 22.9 µM; IC50 (MDA-MB-231): 28.5 µM; IC50 (A549): 23.9 µM

Question: With `O=C1Nc2ccc(F)cc2C12c1c(-c3ccccc3)n[nH]c1Nc1[nH]c(=O)[nH]c(=O)c12` (stereo not given) as the compound, how does the IC50 (DU-145) read?
Answer: 42.3 µM

Question: And the IC50 (MDA-MB-231)?
Answer: 75.2 µM

Question: And the IC50 (A549)?
Answer: 25.2 µM

Question: With `O=C1OCC2=C1C1(C(=O)N(Cc3ccccc3)c3ccccc31)c1c(-c3ccccc3)n[nH]c1N2` (stereo not given) as the compound, how does the IC50 (DU-145) read?
Answer: 15.9 µM

Question: And the IC50 (MDA-MB-231)?
Answer: 31.7 µM

Question: And the IC50 (A549)?
Answer: 35.4 µM

Question: Which results are given for `O=C1N(Cc2ccccc2)c2ccc(Cl)cc2C12c1c(-c3ccccc3)n[nH]c1Nc1[nH]c(=O)[nH]c(=O)c12` (stereo not given)?
Answer: IC50 (DU-145): 20.4 µM; IC50 (MDA-MB-231): 12.6 µM; IC50 (A549): 19.9 µM

Question: With `O=C1N(Cc2ccccc2)c2ccccc2C12c1c(-c3ccccc3)n[nH]c1Nc1[nH]c(=O)[nH]c(=O)c12` (stereo not given) as the compound, how does the IC50 (DU-145) read?
Answer: 18.2 µM

Question: And the IC50 (MDA-MB-231)?
Answer: 13.1 µM

Question: What about the IC50 (A549) of the same compound?
Answer: 36.2 µM

Question: Which results are given for `O=c1[nH]cc(F)c(=O)[nH]1` [FLUOROURACIL]?
Answer: IC50 (DU-145): 6.37 µM; IC50 (MDA-MB-231): 5.82 µM; IC50 (A549): 7.51 µM

Question: For `O=C1Nc2ccc(I)cc2C12c1c(-c3ccccc3)n[nH]c1Nc1[nH]c(=O)[nH]c(=O)c12` (stereo not given), which IC50 (DU-145) is on record?
Answer: 10.4 µM

Question: And the IC50 (MDA-MB-231)?
Answer: 46.1 µM

Question: And the IC50 (A549)?
Answer: 12.5 µM

Question: For `O=C1N(Cc2ccc3c(c2)OCO3)c2ccc(Cl)cc2C12c1c(-c3ccccc3)n[nH]c1Nc1[nH]c(=O)[nH]c(=O)c12` (stereo not given), which IC50 (DU-145) is on record?
Answer: 24.4 µM

Question: And the IC50 (MDA-MB-231)?
Answer: 15.9 µM

Question: What about the IC50 (A549) of the same compound?
Answer: 26.3 µM

Question: How did the IC50 (DU-145) turn out when `Cc1ccc2c(c1)C1(C(=O)N2)C2=C(COC2=O)Nc2[nH]nc(-c3ccccc3)c21` (stereo not given) was run?
Answer: 12.9 µM

Question: What about the IC50 (MDA-MB-231) of the same compound?
Answer: 62.1 µM

Question: And the IC50 (A549)?
Answer: 15.8 µM

Question: How did the IC50 (DU-145) turn out when `COc1cc(CN2C(=O)C3(C4=C(COC4=O)Nc4[nH]nc(-c5ccccc5)c43)c3cc(Cl)ccc32)cc(OC)c1OC` (stereo not given) was run?
Answer: 20.5 µM

Question: And the IC50 (MDA-MB-231)?
Answer: 19.4 µM

Question: What about the IC50 (A549) of the same compound?
Answer: 19.9 µM

Question: For `O=C1OCC2=C1C1(C(=O)Nc3ccc(F)cc31)c1c(-c3ccccc3)n[nH]c1N2` (stereo not given), which IC50 (DU-145) is on record?
Answer: 28.5 µM

Question: What about the IC50 (MDA-MB-231) of the same compound?
Answer: 34.6 µM

Question: What about the IC50 (A549) of the same compound?
Answer: 25.2 µM

Question: What does the source list for `O=C1Nc2ccc([N+](=O)[O-])cc2C12c1c(-c3ccccc3)n[nH]c1Nc1[nH]c(=O)[nH]c(=O)c12` (stereo not given)?
Answer: IC50 (DU-145): 9.63 µM; IC50 (MDA-MB-231): 63.2 µM; IC50 (A549): 7.82 µM

Question: Which results are given for `O=C1N(Cc2ccccc2)c2ccc(Br)cc2C12c1c(-c3ccccc3)n[nH]c1Nc1[nH]c(=O)[nH]c(=O)c12` (stereo not given)?
Answer: IC50 (DU-145): 23.7 µM; IC50 (MDA-MB-231): 6.33 µM; IC50 (A549): 25.4 µM

Question: For `Cc1ccc2c(c1)C1(C(=O)N2)c2c(-c3ccccc3)n[nH]c2Nc2[nH]c(=O)[nH]c(=O)c21` (stereo not given), which IC50 (DU-145) is on record?
Answer: 9.63 µM

Question: And the IC50 (MDA-MB-231)?
Answer: 63.2 µM

Question: What about the IC50 (A549) of the same compound?
Answer: 7.82 µM

Question: Which results are given for `O=C1OCC2=C1C1(C(=O)Nc3ccccc31)c1c(-c3ccccc3)n[nH]c1N2` (stereo not given)?
Answer: IC50 (DU-145): 25.2 µM; IC50 (MDA-MB-231): 48.9 µM; IC50 (A549): 13.5 µM

Question: How did the IC50 (DU-145) turn out when `O=C1OCC2=C1C1(C(=O)Nc3ccc(Cl)cc31)c1c(-c3ccccc3)n[nH]c1N2` (stereo not given) was run?
Answer: 41.2 µM

Question: What about the IC50 (MDA-MB-231) of the same compound?
Answer: 55.2 µM

Question: What about the IC50 (A549) of the same compound?
Answer: 50.1 µM

Question: How did the IC50 (DU-145) turn out when `O=C1Nc2ccccc2C12c1c(-c3ccccc3)n[nH]c1Nc1[nH]c(=O)[nH]c(=O)c12` (stereo not given) was run?
Answer: 18.3 µM

Question: And the IC50 (MDA-MB-231)?
Answer: 35.2 µM

Question: And the IC50 (A549)?
Answer: 17.7 µM

Question: What does the source list for `O=C1OCC2=C1C1(C(=O)N(Cc3ccc4c(c3)OCO4)c3ccc(Cl)cc31)c1c(-c3ccccc3)n[nH]c1N2` (stereo not given)?
Answer: IC50 (DU-145): 15.2 µM; IC50 (MDA-MB-231): 0.35 µM; IC50 (A549): 19.9 µM

Question: Which results are given for `O=C1Nc2c(F)cccc2C12c1c(-c3ccccc3)n[nH]c1Nc1[nH]c(=O)[nH]c(=O)c12` (stereo not given)?
Answer: IC50 (DU-145): 20.7 µM; IC50 (MDA-MB-231): 66.9 µM; IC50 (A549): 18.2 µM

Question: With `O=C1OCC2=C1C1(C(=O)N(Cc3ccccc3)c3ccc(Cl)cc31)c1c(-c3ccccc3)n[nH]c1N2` (stereo not given) as the compound, how does the IC50 (DU-145) read?
Answer: 35.3 µM

Question: What about the IC50 (MDA-MB-231) of the same compound?
Answer: 3.9 µM

Question: What about the IC50 (A549) of the same compound?
Answer: 50.2 µM

Question: How did the IC50 (DU-145) turn out when `O=C1OCC2=C1C1(C(=O)Nc3ccc(I)cc31)c1c(-c3ccccc3)n[nH]c1N2` (stereo not given) was run?
Answer: 21.6 µM

Question: What about the IC50 (MDA-MB-231) of the same compound?
Answer: 19.8 µM

Question: And the IC50 (A549)?
Answer: 32.8 µM

Question: What does the source list for `O=C1OCC2=C1C1(C(=O)Nc3ccc([N+](=O)[O-])cc31)c1c(-c3ccccc3)n[nH]c1N2` (stereo not given)?
Answer: IC50 (DU-145): 38.5 µM; IC50 (MDA-MB-231): 50.1 µM; IC50 (A549): 51.3 µM

Question: With `O=C1Nc2ccc(Br)cc2C12c1c(-c3ccccc3)n[nH]c1Nc1[nH]c(=O)[nH]c(=O)c12` (stereo not given) as the compound, how does the IC50 (DU-145) read?
Answer: 30.5 µM

Question: And the IC50 (MDA-MB-231)?
Answer: 48.2 µM

Question: What about the IC50 (A549) of the same compound?
Answer: 21.6 µM

Question: `O=C1N(Cc2ccc3c(c2)OCO3)c2ccccc2C12c1c(-c3ccccc3)n[nH]c1Nc1[nH]c(=O)[nH]c(=O)c12` (stereo not given) was tested. Which IC50 (DU-145) did it give?
Answer: 19.6 µM

Question: What about the IC50 (MDA-MB-231) of the same compound?
Answer: 20.2 µM

Question: What about the IC50 (A549) of the same compound?
Answer: 17.4 µM

Question: What does the source list for `O=C1OCC2=C1C1(C(=O)Nc3ccc(Br)cc31)c1c(-c3ccccc3)n[nH]c1N2` (stereo not given)?
Answer: IC50 (DU-145): 20.5 µM; IC50 (MDA-MB-231): 25.1 µM; IC50 (A549): 31.6 µM

Question: Which IC50 (DU-145) does the source give for `COc1cc(CN2C(=O)C3(c4cc(Cl)ccc42)c2c(-c4ccccc4)n[nH]c2Nc2[nH]c(=O)[nH]c(=O)c23)cc(OC)c1OC` (stereo not given) here?
Answer: 32.6 µM

Question: What about the IC50 (MDA-MB-231) of the same compound?
Answer: 39.8 µM

Question: And the IC50 (A549)?
Answer: 31.3 µM

Question: Which results are given for `COc1ccc2c(c1)C1(C(=O)N2Cc2ccccc2)c2c(-c3ccccc3)n[nH]c2Nc2[nH]c(=O)[nH]c(=O)c21` (stereo not given)?
Answer: IC50 (DU-145): 21.6 µM; IC50 (MDA-MB-231): 14.5 µM; IC50 (A549): 16.8 µM

Question: How did the IC50 (DU-145) turn out when `O=C1OCC2=C1C1(C(=O)N(Cc3ccc4c(c3)OCO4)c3ccccc31)c1c(-c3ccccc3)n[nH]c1N2` (stereo not given) was run?
Answer: 11.7 µM

Question: And the IC50 (MDA-MB-231)?
Answer: 10.1 µM

Question: And the IC50 (A549)?
Answer: 41.2 µM

Question: `O=C1OCC2=C1C1(C(=O)N(Cc3ccccc3)c3ccc(Br)cc31)c1c(-c3ccccc3)n[nH]c1N2` (stereo not given) was tested. Which IC50 (DU-145) did it give?
Answer: 8.46 µM

Question: And the IC50 (MDA-MB-231)?
Answer: 12.5 µM

Question: And the IC50 (A549)?
Answer: 15.8 µM

Question: With `COc1ccc2c(c1)C1(C(=O)N2Cc2ccccc2)C2=C(COC2=O)Nc2[nH]nc(-c3ccccc3)c21` (stereo not given) as the compound, how does the IC50 (DU-145) read?
Answer: 15.2 µM

Question: What about the IC50 (MDA-MB-231) of the same compound?
Answer: 5.12 µM

Question: And the IC50 (A549)?
Answer: 14.5 µM

Question: Which IC50 (DU-145) does the source give for `O=C1OCC2=C1C1(C(=O)N(Cc3ccc4c(c3)OCO4)c3ccc(Br)cc31)c1c(-c3ccccc3)n[nH]c1N2` (stereo not given) here?
Answer: 13.6 µM

Question: And the IC50 (MDA-MB-231)?
Answer: 1.92 µM

Question: What about the IC50 (A549) of the same compound?
Answer: 63.4 µM

Question: Which IC50 (DU-145) does the source give for `O=C1Nc2ccc(Cl)cc2C12c1c(-c3ccccc3)n[nH]c1Nc1[nH]c(=O)[nH]c(=O)c12` (stereo not given) here?
Answer: 15.8 µM

Question: And the IC50 (MDA-MB-231)?
Answer: 68.4 µM

Question: What about the IC50 (A549) of the same compound?
Answer: 7.92 µM

Question: Which IC50 (DU-145) does the source give for `O=C1N(Cc2ccc3c(c2)OCO3)c2ccc(Br)cc2C12c1c(-c3ccccc3)n[nH]c1Nc1[nH]c(=O)[nH]c(=O)c12` (stereo not given) here?
Answer: 16.5 µM

Question: What about the IC50 (MDA-MB-231) of the same compound?
Answer: 13.6 µM

Question: What about the IC50 (A549) of the same compound?
Answer: 14.8 µM

Question: `COc1ccc2c(c1)C1(C(=O)N2)C2=C(COC2=O)Nc2[nH]nc(-c3ccccc3)c21` (stereo not given) was tested. Which IC50 (DU-145) did it give?
Answer: 43.6 µM

Question: And the IC50 (MDA-MB-231)?
Answer: 54.7 µM

Question: And the IC50 (A549)?
Answer: 50.1 µM
